Data from patent US20260184690A1, “Substituted Heterocyclic Compounds” (Bristol-Myers Squibb Company, priority 2022, published 2026).
Like-named read-outs stand apart in the source and are kept apart here. Values belong to the compound of their own block, whether it stands above or below them.

Columns and labels:
[1] = test system: IFNα-induced pSTAT5 in human whole blood (CD3 positive population); test: IFNα-induced STAT phosphorylation in human whole blood; assay type: cell-based; conditions: 1 h compound incubation, 1000 U/mL IFNα A/D for 15 min, CD3+ gate, read-out: Human Whole blood IFNa pSTAT5 IC50
Experimental: After an hour long incubation with compound, human whole blood (drawn with ACD-A as anticoagulant) was stimulated with 1000 U/mL recombinant human IFNα A/D (R&D Systems 11200-2) for 15 min. The stimulation was stopped by adding Fix/Lyse buffer (BD 558049). Cells were stained with a CD3 FITC antibody (BD 555916), washed, and permeabilized on ice using Perm III buffer (BD 558050). Cells were then stained with an Alexa-Fluor 647 pSTAT5 (pY694) antibody (BD 612599) for 60 min prior to analysis on the iQue Plus. The amount of pSTAT5 expression was quantitated by median fluorescence intensity after gating on the CD3 positive population.

Caco-2 cells [2] = test: Bidirectional permeability assay in Caco-2 cells; conditions: 3 μM, pH 7.4, 0.5% BSA, 2 hours at 37° C.; for Caco-2 AB: apical-to-basolateral Pc
Caco-2 cells [3] = conditions: human, Caco-2, 2 h, 3 μM, pH 7.4
in vitro = conditions: human, Caco-2, pH 7.4

Compound: CNC(=O)c1cnc(N2CCN(C(C)C)C2=O)cc1Nc1nccc(-c2cnn(C)n2)c1OC [Example 2, 4-{[3-methoxy-4-(2-methyl-2H-1,2,3-triazol-4-yl)pyridin-2-yl]amino}-N-(^2H3)methyl-6-[2-oxo-3-(propan-2-yl)imidazolidin-1-yl]pyridine-3-carboxamide]
IC50 [1]: 26 nM

Compound: [2H]C([2H])([2H])NC(=O)c1cnc(N2CCN(C(C)C)C2=O)cc1Nc1nccc(-c2cnn(C)n2)c1OC [Example 2, 4-{[3-methoxy-4-(2-methyl-2H-1,2,3-triazol-4-yl)pyridin-2-yl]amino}-N-(^2H3)methyl-6-[2-oxo-3-(propan-2-yl)imidazolidin-1-yl]pyridine-3-carboxamide]
Caco-2 efflux ratio (Caco-2 cells [2]): 1.4
Caco-2 AB (Caco-2 cells [2]): 233 nm/s

Compound: CNC(=O)c1cnc(N2CCN(C(C)C)C2=O)cc1Nc1cccc(-c2cnn(C)n2)c1OC [Example 3, 4-{[2-methoxy-3-(2-methyl-2H-1,2,3-triazol-4-yl)phenyl]amino}-N-(^2H3)methyl-6-[2-oxo-3-(propan-2-yl)imidazolidin-1-yl]pyridine-3-carboxamide]
IC50 [1]: 77 nM

Compound: [2H]C([2H])([2H])NC(=O)c1cnc(N2CCN(C(C)C)C2=O)cc1Nc1cccc(-c2cnn(C)n2)c1OC [Example 3, 4-{[2-methoxy-3-(2-methyl-2H-1,2,3-triazol-4-yl)phenyl]amino}-N-(^2H3)methyl-6-[2-oxo-3-(propan-2-yl)imidazolidin-1-yl]pyridine-3-carboxamide]
Caco-2 efflux ratio (Caco-2 cells [2]): 0.7
Caco-2 AB (Caco-2 cells [2]): 287 nm/s

Compound: [2H]C([2H])([2H])NC(=O)c1nnc(N2CCN(C3CC3)C2=O)cc1Nc1cccc(-c2cnn(C)n2)c1OC [Example 5, 6-(3-cyclopropyl-2-oxoimidazolidin-1-yl)-4-{[2-methoxy-3-(2-methyl-2H-1,2,3-triazol-4-yl)phenyl]amino}-N-(^2H3)methylpyridazine-3-carboxamide]
Caco-2 AB (Caco-2 cells [3]): 361 nm/s

Compound: CNC(=O)c1cnc(N2CCN(C(F)(F)F)C2=O)cc1Nc1cccc(-c2cnn(C)n2)c1OC [Example 6, 4-{[2-methoxy-3-(2-methyl-2H-1,2,3-triazol-4-yl)phenyl]amino}-N-(^2H3)methyl-6-[2-oxo-3-(trifluoromethyl)imidazolidin-1-yl]pyridine-3-carboxamide]
IC50 [1]: 800 nM

Compound: [2H]C([2H])([2H])NC(=O)c1cnc(N2CCN(C(F)(F)F)C2=O)cc1Nc1cccc(-c2cnn(C)n2)c1OC [Example 6, 4-{[2-methoxy-3-(2-methyl-2H-1,2,3-triazol-4-yl)phenyl]amino}-N-(^2H3)methyl-6-[2-oxo-3-(trifluoromethyl)imidazolidin-1-yl]pyridine-3-carboxamide]
Caco-2 efflux ratio (Caco-2 cells [2]): 0.6
Caco-2 AB (Caco-2 cells [2]): 118 nm/s

Continued, values first:

IC50 [1]: 26 nM
Compound: CNC(=O)c1nnc(N2CCN(C3CC3)C2=O)cc1Nc1nccc(-c2cnn(C)n2)c1OC [Example 4, 6-(3-cyclopropyl-2-oxoimidazolidin-1-yl)-4-{[3-methoxy-4-(2-methyl-2H-1,2,3-triazol-4-yl)pyridin-2-yl]amino}-N-(^2H3)methylpyridazine-3-carboxamide]

Caco-2 AB (Caco-2 cells [3]): 576 nm/s
Compound: [2H]C([2H])([2H])NC(=O)c1nnc(N2CCN(C3CC3)C2=O)cc1Nc1nccc(-c2cnn(C)n2)c1OC [Example 4, 6-(3-cyclopropyl-2-oxoimidazolidin-1-yl)-4-{[3-methoxy-4-(2-methyl-2H-1,2,3-triazol-4-yl)pyridin-2-yl]amino}-N-(^2H3)methylpyridazine-3-carboxamide]

IC50 [1]: 95 nM
Compound: CNC(=O)c1nnc(N2CCN(C3CC3)C2=O)cc1Nc1cccc(-c2cnn(C)n2)c1OC [Example 5, 6-(3-cyclopropyl-2-oxoimidazolidin-1-yl)-4-{[2-methoxy-3-(2-methyl-2H-1,2,3-triazol-4-yl)phenyl]amino}-N-(^2H3)methylpyridazine-3-carboxamide]

IC50 [1]: 47 nM
Compound: CNC(=O)c1nnc(N2CCN(C3CCC3)C2=O)cc1Nc1nccc(-c2cnn(C)n2)c1OC [Example 7, 6-(3-cyclobutyl-2-oxoimidazolidin-1-yl)-4-{[3-methoxy-4-(2-methyl-2H-1,2,3-triazol-4-yl)pyridin-2-yl]amino}-N-(^2H3)methylpyridazine-3-carboxamide]

Caco-2 AB (Caco-2 cells [3]): 139 nm/s
Compound: [2H]C([2H])([2H])NC(=O)c1nnc(N2CCN(C3CCC3)C2=O)cc1Nc1nccc(-c2cnn(C)n2)c1OC [Example 7, 6-(3-cyclobutyl-2-oxoimidazolidin-1-yl)-4-{[3-methoxy-4-(2-methyl-2H-1,2,3-triazol-4-yl)pyridin-2-yl]amino}-N-(^2H3)methylpyridazine-3-carboxamide]

IC50 [1]: 383 nM
Papp A→B at 2 h, 3 μM (in vitro): 15.4 ×10⁻⁶ cm/s
efflux ratio at 2 h, 3 μM (in vitro): 0.3
Compound: [2H]C([2H])([2H])NC(=O)c1nnc(N2CCN(C(C)C)C2=O)cc1Nc1nc(C)cc(-c2cnn(C)n2)c1OC [Example 8, 6-(3-isopropyl-2-oxoimidazolidin-1-yl)-4-((3-methoxy-6-methyl-4-(2-methyl-2H-1,2,3-triazol-4-yl)pyridin-2-yl)amino)-N-(methyl-d3)pyridazine-3-carboxamide]

IC50 [1]: 141 nM
Papp A→B at 2 h, 3 μM (in vitro): 13.7 ×10⁻⁶ cm/s
efflux ratio at 2 h, 3 μM (in vitro): 0.2
Compound: [2H]C([2H])([2H])NC(=O)c1nnc(N2CCN(C3CC3)C2=O)cc1Nc1nc(C)cc(-c2cnn(C)n2)c1OC [Example 9, 6-(3-cyclopropyl-2-oxoimidazolidin-1-yl)-4-((3-methoxy-6-methyl-4-(2-methyl-2H-1,2,3-triazol-4-yl)pyridin-2-yl)amino)-N-(methyl-d3)pyridazine-3-carboxamide]
